Experimental data from patent US4036979A, “Compositions containing 4,5,6,7-tetrahydrobenz[b]thien-4-yl-ureas or derivatives and methods of enhancing growth rate” (American Cyanamid Company, priority 1976, dated 1977).

Experiment: Mouse Growth Regulant Tests (12-day weight gain over controls, compound in diet)
Type: in vivo, CFI female mice
Settings: Mus musculus, feed or water, 288 h, Table IX; 400 ppm in diet
Description: CFI female mice from Carworth Farms are received when they are six weeks old. They are housed ten to a cage in air-conditioned rooms (72° F. to 76° F.) with automatically controlled lights, 14 hours on and 10 hours off. The basal diet used in these studies is Purina Laboratory Chow (see description below), which is supplied ad libitum. Water is also allowed ad libitum.
Thirteen days after arrival, the mice are weighed in groups of ten and assigned at random to the different treatments. Twelve days later the mice are weighed again and the experiment terminated. At least three cages (30 mice) of untreated controls are included in each test. Test data are provided in Tables VI, VII, VIII, and IX below wherein data are reported as percent weight gain over controls. Unless otherwise indicated in these tables, all compounds tested were dl-racemic mixtures. The following is a description of the diet to which the growth promoting compounds were added.
`NC(=O)NC1CCCC(=O)c2sccc21` (stereo not drawn) [5,6,7,8-tetrahydro-4H-8-oxocyclohepta[b]thien-4-ylurea] gave a change in vivo at 400 ppm of 68.8%. `COCNC(=O)NC1CCCCc2sccc21` (stereo not drawn) [Table IX: O,H,H,CH2OCH3, 1-(methoxymethyl)-3-(5,6,7,8-tetrahydro-4H-cyclohepta[b]thien-4-yl)urea] showed a change in vivo at 400 ppm of 10%. Molecule `CNC(=O)NC1CCCCc2sccc21` (stereo not drawn) [Table IX: O,H,H,CH3, 1-methyl-3-(5,6,7,8-tetrahydro-4H-cyclohepta[b]thien-4-yl)urea] has a change in vivo at 400 ppm of 41%. In the case of `NC(=O)NC1CCCCc2sccc21` (stereo not drawn) [Table IX: O,H,H,H, 5,6,7,8-tetrahydro-4H-cyclohepta[b]thien-4-ylurea], the change in vivo at 400 ppm was 54%. `CCNC(=S)NC1CCCCc2sccc21` (stereo not drawn) [Table IX: S,H,H,C2H5, 1-ethyl-3-(5,6,7,8-tetrahydro-4H-cyclohepta[b]thien-4-yl)-2-thiourea] showed a change in vivo at 400 ppm of 40%.

Same assay, conditions: Mus musculus, feed or water, 288 h, Table VI; 200 ppm in diet
`O=C(NC(=O)C(Cl)(Cl)Cl)NC1CCCc2sccc21` (stereo not drawn) gave a change in vivo at 200 ppm of 37.4%.

Same assay, conditions: Mus musculus, feed or water, 288 h, Table VI; 400 ppm in diet
Molecule `O=C(NC1CCCc2sccc21)NC1CCCc2sccc21` (stereo not drawn) has a change in vivo at 400 ppm of 43%. For `S=C(NCCc1ccccn1)NC1CCCc2sccc21` (stereo not drawn), the change in vivo at 400 ppm was 15%. In the case of `S=C(NC1CC1)NC1CCCc2sccc21` (stereo not drawn), the change in vivo at 400 ppm was 32%. `O=C(NC1CCCc2ccccc21)NC1CCCc2sccc21` (stereo not drawn) showed a change in vivo at 400 ppm of 4%. In the case of `O=C(NC1CCc2ccccc21)NC1CCCc2sccc21` (stereo not drawn), the change in vivo at 400 ppm was 8%. Molecule `O=C(NC1CCCc2sccc21)N1CCC2(CC1)C(=O)NCN2c1ccccc1` (stereo not drawn) has a change in vivo at 400 ppm of 14%. `O=C(Nc1ccc(Cl)cc1Cl)NC1CCCc2sccc21` (stereo not drawn) gave a change in vivo at 400 ppm of 18%. Molecule `O=C(NCNC(=O)NC1CCCc2sccc21)NC1CCCc2sccc21` (stereo not drawn) has a change in vivo at 400 ppm of 29%. `COc1ccc(NC(=O)NC2CCCc3sccc32)cc1` (stereo not drawn) showed a change in vivo at 400 ppm of 78%. Molecule `O=C(NCc1cccs1)NC1CCCc2sccc21` (stereo not drawn) has a change in vivo at 400 ppm of 39%. For `O=C(NCc1cccnc1)NC1CCCc2sccc21` (stereo not drawn), the change in vivo at 400 ppm was 48%. In the case of `C[n+]1cccc(CNC(=O)NC2CCCc3sccc32)c1` (stereo not drawn), the change in vivo at 400 ppm was 6%. Molecule `O=C(Nc1ccc(Cl)cc1)NC1CCCc2sccc21` (stereo not drawn) has a change in vivo at 400 ppm of 21%. `COc1ccc(CNC(=O)NC2CCCc3sccc32)cc1` (stereo not drawn) gave a change in vivo at 400 ppm of 16%. `O=C(NCc1ccccn1)NC1CCCc2sccc21` (stereo not drawn) gave a change in vivo at 400 ppm of 41%. For `O=C(NCc1ccncc1)NC1CCCc2sccc21` (stereo not drawn), the change in vivo at 400 ppm was 46%. In the case of `O=C(NC1CCCc2sccc21)N1CCNCC1` (stereo not drawn), the change in vivo at 400 ppm was 3%. With `O=C(NCc1ccc(Cl)cc1)NC1CCCc2sccc21` (stereo not drawn) the change in vivo at 400 ppm was 1%. In the case of `O=C(NC1CCCc2sccc21)N1CCCc2ccccc21` (stereo not drawn), the change in vivo at 400 ppm was 4%. `O=C(NC1CC1)NC1CCCc2sccc21` (stereo not drawn) gave a change in vivo at 400 ppm of 31%. Work on `O=C(Nc1nccs1)NC1CCCc2sccc21` (stereo not drawn) yielded a change in vivo at 400 ppm of 11%. With `COc1ccc(N2CCN(C(=O)NC3CCCc4sccc43)CC2)cc1` (stereo not drawn) the change in vivo at 400 ppm was 24%. For `O=C(NC1CCCc2sccc21)N1CCc2ccccc2C1` (stereo not drawn), the change in vivo at 400 ppm was 7%. With `O=C(Nc1ccc([N+](=O)[O-])cc1)NC1CCCc2sccc21` (stereo not drawn) the change in vivo at 400 ppm was 9%. Molecule `CCOc1ccc(NC(=O)NC2CCCc3sccc32)cc1` (stereo not drawn) has a change in vivo at 400 ppm of 8%. `CCCCOc1ccc(NC(=O)NC2CCCc3sccc32)cc1` (stereo not drawn) showed a change in vivo at 400 ppm of 9%. For `O=C(NC1CCCc2sccc21)N(O)C1CCCCC1` (stereo not drawn), the change in vivo at 400 ppm was 19%. In the case of `CC(=O)NC(=O)NC1CCCc2sccc21` (stereo not drawn), the change in vivo at 400 ppm was -1.4%. Molecule `COc1ccc(OC)c(NC(=O)NC2CCCc3sccc32)c1` (stereo not drawn) has a change in vivo at 400 ppm of 32.4%. Work on `COc1cccc(NC(=O)NC2CCCc3sccc32)c1` (stereo not drawn) yielded a change in vivo at 400 ppm of 25%. Molecule `COc1ccc(NC(=S)NC2CCCc3sccc32)cc1` (stereo not drawn) has a change in vivo at 400 ppm of -1.4%. `O=C(NOc1ccccc1)NC1CCCc2sccc21` (stereo not drawn) gave a change in vivo at 400 ppm of 90.6%. Work on `NC(=O)NC1CCCc2sccc21` (single isomer, unassigned; (-)) [Table VI: O,H,H,H,H,H (levorotatory enantiomorph), (-)-4,5,6,7-tetrahydrobenzo[b]-thien-4-ylurea] yielded a change in vivo at 400 ppm of 122%. With `CNC(=O)NC1(C)CCCc2sccc21` (stereo not drawn) [1-methyl-3-(4-methyl-4,5,6,7-tetrahydrobenzo[b]thien-4-yl)urea] the change in vivo at 400 ppm was 39%. `CNC(=O)NC1CCC(C)(C)c2sccc21` (stereo not drawn) [1-methyl-3-(7,7-dimethyl-4,5,6,7-tetrahydrobenzo-[b]thien-4-yl)urea] gave a change in vivo at 400 ppm of 15%. Work on `NC(=O)NC1CCCc2sc(Br)cc21` (stereo not drawn) [Table VI: O,Br,H,H,H,H, 2-bromo-4,5,6,7-tetrahydrobenzo[b]-thien-4-ylurea] yielded a change in vivo at 400 ppm of 76.3%. With `CCC(C)NC(=O)NC1CCCc2sc(C)c(C)c21` (stereo not drawn) [Table VI: O,CH3,CH3,H,2-butyl,H] the change in vivo at 400 ppm was 3%. `Cc1sc2c(c1C)C(NC(N)=O)CCC2` (stereo not drawn) [Table VI: O,CH3,CH3,H,H,H] showed a change in vivo at 400 ppm of 0%. With `CCC(C)NC(=O)NC1CCCc2sc(C)cc21` (stereo not drawn) [Table VI: O,CH3,H,H,2-butyl,H] the change in vivo at 400 ppm was 2%. For `NC(=O)NC1CCCc2sc(Cl)cc21` (stereo not drawn) [Table VI: O,Cl,H,H,H,H, 2-chloro-4,5,6,7-tetrahydrobenzo[b]thien-4-ylurea], the change in vivo at 400 ppm was 4.8%. Work on `Cc1csc2c1C(NC(N)=O)CCC2` (stereo not drawn) [Table VI: O,H,CH3,H,H,H, 3-methyl-4,5,6,7-tetrahydrobenzo[b]thien-4-ylurea] yielded a change in vivo at 400 ppm of 26%. With `CCCCCCNC(=O)NC1CCCc2scc(C)c21` (stereo not drawn) [Table VI: O,H,CH3,H,H,n-hexyl] the change in vivo at 400 ppm was 21%. Work on `CN(C(N)=O)C1CCCc2sccc21` (stereo not drawn) [Table VI: O,H,H,CH3,H, 1-methyl-1-(4,5,6,7-tetrahydrobenzo[b]-thien-4-yl)urea] yielded a change in vivo at 400 ppm of 27.2%. `C#CCN(Cc1ccccc1)C(=O)NC1CCCc2sccc21` (stereo not drawn) [Table VI: O,H,H,H,CH2C6H5,CH2CCH] showed a change in vivo at 400 ppm of 30%. Molecule `O=C(NC1CCCc2sccc21)N(O)Cc1ccccc1` (stereo not drawn) [Table VI: O,H,H,H,CH2C6H5,OH] has a change in vivo at 400 ppm of 12%. `C#CCN(CC#C)C(=O)NC1CCCc2sccc21` (stereo not drawn) [Table VI: O,H,H,H,CH2CCH,CH2CCH] showed a change in vivo at 400 ppm of 27%. `O=C(NC1CCCc2sccc21)N1CCCC1` (stereo not drawn) [Table VI: O,H,H,H,CH2CH2CH2CH2] gave a change in vivo at 400 ppm of 18%. `O=C(NC1CCCc2sccc21)N1CCOCC1` (stereo not drawn) [Table VI: O,H,H,H,CH2CH2OCH2CH2, N-(4,5,6,7-tetrahydrobenzo[b]thien-4-yl)-4-morpholinecarboxamide] gave a change in vivo at 400 ppm of 9.9%. Work on `C=CCN(CC=C)C(=O)NC1CCCc2sccc21` (stereo not drawn) [Table VI: O,H,H,H,CH2CHCH2,CH2CHCH2] yielded a change in vivo at 400 ppm of 4%. Molecule `CN(Cc1ccccc1)C(=O)NC1CCCc2sccc21` (stereo not drawn) [Table VI: O,H,H,H,CH3,CH2C6H5] has a change in vivo at 400 ppm of 14%. `C#CCN(C)C(=O)NC1CCCc2sccc21` (stereo not drawn) [Table VI: O,H,H,H,CH3,CH2CCH] showed a change in vivo at 400 ppm of 29%. `CN(C)C(=O)NC1CCCc2sccc21` (stereo not drawn) [Table VI: O,H,H,H,CH3,CH3, 1,1-dimethyl-3-(4,5,6,7-tetrahydrobenzo[b]thien-4-yl)urea] showed a change in vivo at 400 ppm of 55.1%. `CON(C)C(=O)NC1CCCc2sccc21` (stereo not drawn) [Table VI: O,H,H,H,CH3,OCH3, 1-methoxy-1-methyl-3-(4,5,6,7-tetrahydrobenzo[b]thien-4-yl)urea] gave a change in vivo at 400 ppm of 107%. Molecule `CN(O)C(=O)NC1CCCc2sccc21` (stereo not drawn) [Table VI: O,H,H,H,CH3,OH, 1-hydroxy-1-methyl-3-(4,5,6,7-tetrahydrobenzo[b]thien-4-yl)urea] has a change in vivo at 400 ppm of 49.6%.

Same assay, conditions: Mus musculus, feed or water, 288 h, Table VII; 25 ppm in diet
In the case of `NC(=O)NC1CCC(=O)c2sccc21` (single isomer, unassigned; (-)) [Table VII: O,H,H (levorotatory enantiomorph), (-)-4,5,6,7-tetrahydro-7-oxobenzo[b]thien-4-ylurea], the change in vivo at 25 ppm was 119%.

Same assay, conditions: Mus musculus, feed or water, 288 h, Table VII; 200 ppm in diet
With `NC(=O)NC1CCC(=O)c2sccc21` (single isomer, unassigned; (+)) [Table VII: O,H,H (dextrorotatory enantiomorph), (+)-4,5,6,7-tetrahydro-7-oxobenzo[b]thien-4-ylurea] the change in vivo at 200 ppm was 9.4%.

Same assay, conditions: Mus musculus, feed or water, 288 h, Table VII; 400 ppm in diet
`O=C(NC(=O)C(Cl)(Cl)Cl)NC1CCC(=O)c2sccc21` (stereo not drawn) gave a change in vivo at 400 ppm of 62.2%. For `NC(=O)NC1CCC(=O)c2sc(Br)cc21` (stereo not drawn) [2-bromo-4,5,6,7-tetrahydro-7-oxobenzo[b]thien-4-ylurea], the change in vivo at 400 ppm was 35.9%.

Same assay, conditions: Mus musculus, feed or water, 288 h, Table VIII; 50 ppm in diet
With `NC(=O)NC1CCC(O)c2sccc21` (single isomer, unassigned; (+)) [Table VIII: O,H,H (dextrorotatory diastereomer, 95% isomer B), (+)-4,5,6,7-tetrahydro-7-hydroxybenzo[b]thien-4-ylurea] the change in vivo at 50 ppm was -11.3%.

Same assay, conditions: Mus musculus, feed or water, 288 h, Table VIII; 200 ppm in diet
With `NC(=O)NC1CCC(O)c2sccc21` (mixture of isomers) [Table VIII: O,H,H (mixture of dextrorotatory diastereomers, 62% isomer B)] the change in vivo at 200 ppm was 13.5%.

Same assay, conditions: Table VIII; 25 ppm in diet
With `NC(=O)NC1CCC(O)c2sccc21` (single isomer, unassigned; (+)) [Table VIII: O,H,H (dextrorotatory diastereomer, 90% isomer A), (+)-4,5,6,7-tetrahydro-7-hydroxybenzo[b]thien-4-ylurea] the “& Weight Gain Over Controls” value was 3.7%. In the case of `NC(=O)NC1CCC(O)c2sccc21` (single isomer, unassigned; (-)) [Table VIII: O,H,H (levorotatory diastereomer, 86% isomer A)], the “& Weight Gain Over Controls” value was 54.4%. In the case of `NC(=O)NC1CCC(O)c2sccc21` (single isomer, unassigned; (-)) [Table VIII: O,H,H (levorotatory diastereomer, 91.5% isomer B)], the “& Weight Gain Over Controls” value was 74.5%.
